Reference: patent publication US9993534B2, “Method of treating fungal infection” (Wisconsin Alumni Research Foundation, priority 2013, dated 2018)

Test system: 1807 cells
Format: cell-based, mouse
Conditions: Calnexin peptide #1, 13 amino acid sequence of the named species

For LVLKSRAKHHAIS [Homo sapiens (Calmegin)], the 1807 reactive was “not reactive with the 1807 cells”.
